From US9440969B2, “Compounds and methods for kinase modulation, and indications therefor” (PLEXXIKON INC., priority 2009, dated 2016)

Tests used:
[1] = Relative solubility by turbidity in aqueous buffers (pH 1.5, 4.5, 6.8, 7.4); assay type: physicochemical; conditions: for turbidity threshold (L, M, H) 1.4: pH 1.5 buffer (SGF); for turbidity threshold (L, M, H) 4.5: pH 4.5 buffer (SIF); for turbidity threshold (L, M, H) 6.8: pH 6.8 buffer (SIF); for turbidity threshold (L, M, H) 7.4: pH 7.4 buffer (HEPES)
Method: As an indication of relative solubility, the turbidity of compounds in aqueous solutions is assessed. To assess possible compound properties in different physiological compartments, such as stomach, intestine, and blood, a series of aqueous buffers with varying pH is used. Thus each compound is diluted into four different physiologically relevant buffers and solution turbidity is measured by spectrophotometry.
Compounds are dissolved at a concentration of 25 mM in dimethyl sulfoxide, then serially diluted 1:1 into a 96 well plate, diluting 10 times in pure dimethyl sulfoxide, with the final well of each row a dimethyl sulfoxide blank. In an assay plate, 99 μL of appropriate buffer is added to each well, and 1 μL of each sample dilution is added to the buffer, achieving a range of final total concentrations in aqueous solutions having different pH. The buffers used are Simulated Gastric Fluid (SGF-pH 1.5) 0.5M NaCl, pH 1.5; Simulated Intestinal fluid (SIF-pH 4.5 and pH 6.8) 0.05M NaH2PO4, pH 4.5 and 6.8; and Hepes Buffer (HEPES-pH 7.4) 10 mM HEPES, 150 mM NaCl, pH 7.4. Control compounds pyrene, estriol and propranolol HCl are also assessed. Plates are spun and then mixed for 1 minute, and the absorbance is read using a Tecan Safire II to read wavelengths in the visible range (490, 535, and 650 nm) at four locations per well, reflecting the degree of turbidity present. The average optical density for each wavelength in each well is graphed vs. compound concentration, and the concentration at which the curve crosses a threshold O.D. of 0.01 for each wavelength is reported as the endpoint turbidity assay result. The average of the three wavelengths is used to compare turbidity of compounds. Compounds are considered to have low solubility if the threshold concentration is <31.3 μM, moderate solubility if the threshold concentration is 31.3 μM to 250 μM, and high solubility if the threshold concentration is >250 μM.
The following table indicates the relative solubility (L=low, M=moderate, H=high) based on turbidity threshold concentration at each pH for exemplary compounds according to the invention: […]

[2] = target: B-Raf V600E (Homo sapiens, UniProt P15056, V600E); assay: B-Raf V600E kinase activity assay (AlphaScreen, biotin-MEK1 substrate); conditions: 100 μM ATP, 100 nM biotin-MEK1, 45 minutes at room temperature, read-out: Biochemical activity (IC50 μM) V600E
Method: (§1) Assays for biochemical and cell based activity are known in the art, for example, as described in PCT publication WO 2007/002433, the disclosure of which is hereby incorporated by reference as it relates to such assays. For example, the biochemical activity IC50 values are determined with respect to inhibition of B-Raf kinase activity, c-Raf-1 kinase activity, or B-Raf V600E kinase activity, where inhibition of phosphorylation of a peptide substrate is measured as a function of compound concentration. Compounds to be tested are diluted in dimethyl sulfoxide to a concentration of 0.1 mM. These are serially diluted 15 μL into 30 μL of dimethyl sulfoxide seven times in 96 well plates for a total of 8 dilution points, and for each dilution point 1 μL is added to a well of an assay plate. Plates are prepared such that each well in a 384 well plate contains 1 μL of compound in 10 μL, volume with 0.1 ng Raf enzyme (i.e. any of B-Raf, c-Raf-1 or B-Raf V600E, Upstate Biotechnology or prepared by methods known to one of skill in the art), 50 mM HEPES, pH 7.0, 50 mM NaCl, 2 mM MgCl2, 1 mM MnCl2, 0.01% Tween-20, 1 mM DTT, and 100 nM biotin-MEK1 as substrate. The reaction is started with addition of 10 μL of 200 μM ATP (i.e. final 100 μM ATP). After incubation of the kinase reaction for 45 minutes at room temperature, 5 μL/well of Stop Solution is added (25 mM Hepes pH 7.5, 100 mM EDTA, 0.01% BSA with donor beads (Streptavidin coated beads, Perkin Elmer), acceptor beads (Protein A coated, Perkin Elmer), and anti phosphor MEK1/2 antibody (CellSignal), each at final concentration 10 μg/mL). The plates are incubated for 3 hours at room temperature and read on Envision reader (Perkin Elmer). Phosphorylation of Mek1 results in binding of the anti-phosphor-MEK1/2 antibody and association of the donor and acceptor beads such that signal correlates with kinase activity. The signal vs. compound concentration is used to determine the IC50.

[3] = target: B-Raf (Homo sapiens, UniProt P15056); assay: B-Raf kinase activity assay (AlphaScreen, biotin-MEK1 substrate); conditions: 100 μM ATP, 100 nM biotin-MEK1, 45 minutes at room temperature; read-out: Biochemical activity (IC50 μM) B-Raf
Method: as §1

[4] = target: c-Raf-1 (Homo sapiens, UniProt P04049); assay: c-Raf-1 kinase activity assay (AlphaScreen, biotin-MEK1 substrate); conditions: 100 μM ATP, 100 nM biotin-MEK1, 45 minutes at room temperature; read-out: Biochemical activity (IC50 μM) c-Raf-1
Method: as §1

c-Raf-1, sequence (P04049 whole entry Y340D/Y341D, form open): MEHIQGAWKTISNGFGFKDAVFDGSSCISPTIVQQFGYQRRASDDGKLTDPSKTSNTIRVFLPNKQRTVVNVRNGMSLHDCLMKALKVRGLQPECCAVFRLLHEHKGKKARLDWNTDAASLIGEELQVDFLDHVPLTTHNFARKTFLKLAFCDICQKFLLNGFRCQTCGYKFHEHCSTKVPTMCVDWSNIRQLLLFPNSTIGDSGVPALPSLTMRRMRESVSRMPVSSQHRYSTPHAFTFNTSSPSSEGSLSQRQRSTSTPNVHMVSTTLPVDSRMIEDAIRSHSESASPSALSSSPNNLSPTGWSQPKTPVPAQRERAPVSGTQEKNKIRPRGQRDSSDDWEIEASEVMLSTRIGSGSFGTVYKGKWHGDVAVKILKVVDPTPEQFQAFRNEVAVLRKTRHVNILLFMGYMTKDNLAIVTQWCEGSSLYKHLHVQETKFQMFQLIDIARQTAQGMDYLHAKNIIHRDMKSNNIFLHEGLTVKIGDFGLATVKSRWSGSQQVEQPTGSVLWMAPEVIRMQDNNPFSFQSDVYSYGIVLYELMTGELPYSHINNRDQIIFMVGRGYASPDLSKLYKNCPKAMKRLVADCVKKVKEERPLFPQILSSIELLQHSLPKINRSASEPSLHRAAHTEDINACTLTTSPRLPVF
B-Raf, sequence (P15056 whole entry): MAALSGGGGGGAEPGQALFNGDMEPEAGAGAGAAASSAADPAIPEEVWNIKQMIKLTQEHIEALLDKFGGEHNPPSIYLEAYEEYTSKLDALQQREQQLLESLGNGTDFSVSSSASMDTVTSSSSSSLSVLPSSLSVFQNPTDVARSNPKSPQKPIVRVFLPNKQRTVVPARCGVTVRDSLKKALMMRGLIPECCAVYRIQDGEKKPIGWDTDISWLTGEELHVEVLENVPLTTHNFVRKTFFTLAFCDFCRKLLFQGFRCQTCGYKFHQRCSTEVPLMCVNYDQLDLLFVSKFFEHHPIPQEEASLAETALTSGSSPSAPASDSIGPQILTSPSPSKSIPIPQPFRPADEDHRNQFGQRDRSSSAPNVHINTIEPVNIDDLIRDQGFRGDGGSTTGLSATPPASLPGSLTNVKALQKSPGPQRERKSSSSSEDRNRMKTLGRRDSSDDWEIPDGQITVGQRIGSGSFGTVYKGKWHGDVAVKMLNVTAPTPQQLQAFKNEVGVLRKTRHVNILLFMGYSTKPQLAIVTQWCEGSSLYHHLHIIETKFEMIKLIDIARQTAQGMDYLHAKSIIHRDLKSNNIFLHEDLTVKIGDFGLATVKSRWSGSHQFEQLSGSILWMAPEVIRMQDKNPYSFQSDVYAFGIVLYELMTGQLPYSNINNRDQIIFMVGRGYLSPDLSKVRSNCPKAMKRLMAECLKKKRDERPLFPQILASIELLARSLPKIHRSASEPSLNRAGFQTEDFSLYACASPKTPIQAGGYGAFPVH
B-Raf V600E, sequence (P15056 whole entry V600E): as the sequence (P15056 whole entry) above, with V600E counted along it

| SMILES | turbidity threshold (L, M, H) 1.4 [1] | turbidity threshold (L, M, H) 4.5 [1] | turbidity threshold (L, M, H) 6.8 [1] | turbidity threshold (L, M, H) 7.4 [1] | IC50 [2] | IC50 [3] | IC50 [4] |
| --- | --- | --- | --- | --- | --- | --- | --- |
| Cc1cc(-c2cnc3[nH]cc(C(=O)c4c(F)ccc(NS(=O)(=O)c5cc(F)ccc5F)c4F)c3c2)n(C)n1 [P-1010, N-{3-[5-(2,5-Dimethyl-2H-pyrazol-3-yl)-1H-pyrrolo[2,3-b]pyridine-3-carbonyl]-2,4-difluoro-phenyl}-2,5-difluoro-benzenesulfonamide] | M (moderate solubility if the threshold concentration is 31.3 μM to 250 μM) | L (low solubility if the threshold concentration is <31.3 μM) | L (low solubility if the threshold concentration is <31.3 μM) | M (moderate solubility if the threshold concentration is 31.3 μM to 250 μM) | < 0.1 µM | < 0.1 µM | < 0.1 µM |
| Cn1ccc(-c2cnc3[nH]cc(C(=O)c4c(F)ccc(NS(=O)(=O)c5cc(F)ccc5F)c4F)c3c2)n1 [P-1011, N-{2,4-Difluoro-3-[5-(1-methyl-1H-pyrazol-3-yl)-1H-pyrrolo[2,3-b]pyridine-3-carbonyl]-phenyl}-2,5-difluoro-benzenesulfonamide] | L (low solubility if the threshold concentration is <31.3 μM) | L (low solubility if the threshold concentration is <31.3 μM) | M (moderate solubility if the threshold concentration is 31.3 μM to 250 μM) | M (moderate solubility if the threshold concentration is 31.3 μM to 250 μM) | < 0.1 µM | < 0.1 µM | < 0.1 µM |
| COc1ccc(-c2cnc3[nH]cc(C(=O)c4c(F)ccc(NS(=O)(=O)c5cc(F)ccc5F)c4F)c3c2)c(OC)n1 [P-1406, N-{3-[5-(2,6-Dimethoxy-pyridin-3-yl)-1H-pyrrolo[2,3-b]pyridine-3-carbonyl]-2,4-difluoro-phenyl}-2,5-difluoro-benzenesulfonamide] | L (low solubility if the threshold concentration is <31.3 μM) | L (low solubility if the threshold concentration is <31.3 μM) | L (low solubility if the threshold concentration is <31.3 μM) | L (low solubility if the threshold concentration is <31.3 μM) | < 0.1 µM | < 0.1 µM | < 0.1 µM |
| CN(C)c1ccc(-c2cnc3[nH]cc(C(=O)c4c(F)ccc(NS(=O)(=O)c5cc(F)ccc5F)c4F)c3c2)cn1 [P-1409, N-{3-[5-(6-Dimethylamino-pyridin-3-yl)-1H-pyrrolo[2,3-b]pyridine-3-carbonyl]-2,4-difluoro-phenyl}-2,5-difluoro-benzenesulfonamide] | L (low solubility if the threshold concentration is <31.3 μM) | L (low solubility if the threshold concentration is <31.3 μM) | L (low solubility if the threshold concentration is <31.3 μM) | L (low solubility if the threshold concentration is <31.3 μM) | < 0.1 µM | < 0.1 µM | < 0.1 µM |
| O=C(c1c(F)ccc(NS(=O)(=O)c2cc(F)ccc2F)c1F)c1c[nH]c2ncc(-c3cncnc3)cc12 [P-1500, N-[2,4-Difluoro-3-(5-pyrimidin-5-yl-1H-pyrrolo[2,3-b]pyridine-3-carbonyl)-phenyl]-2,5-difluoro-benzenesulfonamide] |  |  |  |  | < 0.1 µM | < 0.1 µM | < 0.1 µM |
| COc1ncc(-c2cnc3[nH]cc(C(=O)c4c(F)ccc(NS(=O)(=O)c5cc(F)ccc5F)c4F)c3c2)c(OC)n1 [P-1501, N-{3-[5-(2,4-Dimethoxy-pyrimidin-5-yl)-1H-pyrrolo[2,3-b]pyridine-3-carbonyl]-2,4-difluoro-phenyl}-2,5-difluoro-benzenesulfonamide] | L (low solubility if the threshold concentration is <31.3 μM) | L (low solubility if the threshold concentration is <31.3 μM) | L (low solubility if the threshold concentration is <31.3 μM) | L (low solubility if the threshold concentration is <31.3 μM) | < 0.1 µM | < 0.1 µM | < 0.1 µM |
| CN(C)c1ncc(-c2cnc3[nH]cc(C(=O)c4c(F)ccc(NS(=O)(=O)c5cc(F)ccc5F)c4F)c3c2)cn1 [P-1502, N-{3-[5-(2-Dimethylamino-pyrimidin-5-yl)-1H-pyrrolo[2,3-b]pyridine-3-carbonyl]-2,4-difluoro-phenyl}-2,5-difluoro-benzenesulfonamide] | L (low solubility if the threshold concentration is <31.3 μM) | L (low solubility if the threshold concentration is <31.3 μM) | L (low solubility if the threshold concentration is <31.3 μM) | L (low solubility if the threshold concentration is <31.3 μM) | < 0.1 µM | < 0.1 µM | < 0.1 µM |
| CNS(=O)(=O)c1ccc(-c2cnc3[nH]cc(C(=O)c4c(F)ccc(NS(=O)(=O)c5cc(F)ccc5F)c4F)c3c2)cc1 [P-1706, N-{2,4-Difluoro-3-[5-(4-methylsulfamoyl-phenyl)-1H-pyrrolo[2,3-b]pyridine-3-carbonyl]-phenyl}-2,5-difluoro-benzenesulfonamide] |  |  |  |  | < 0.1 µM | < 0.1 µM | < 0.1 µM |
| NS(=O)(=O)c1ccc(-c2cnc3[nH]cc(C(=O)c4c(F)ccc(NS(=O)(=O)c5cc(F)ccc5F)c4F)c3c2)cc1 [P-1707, N-{2,4-Difluoro-3-[5-(4-sulfamoyl-phenyl)-1H-pyrrolo[2,3-b]pyridine-3-carbonyl]-phenyl}-2,5-difluoro-benzenesulfonamide] |  |  |  |  | < 0.1 µM | < 0.1 µM | < 0.1 µM |
| CCCS(=O)(=O)Nc1ccc(F)c(C(=O)c2c[nH]c3ncc(NC(=O)c4cccnc4)cc23)c1F [P-1800, N-{3-[2,6-Difluoro-3-(propane-1-sulfonylamino)-benzoyl]-1H-pyrrolo[2,3-b]pyridin-5-yl}-nicotinamide] |  |  |  |  | < 0.1 µM | < 1 µM | < 0.1 µM |
| CCCS(=O)(=O)Nc1ccc(F)c(C(=O)c2c[nH]c3ncc(NC(=O)C4C=C(C)ON4)cc23)c1F (stereo not drawn) [P-1802, 5-Methyl-2,3-dihydro-isoxazole-3-carboxylic acid {3-[2,6-difluoro-3-(propane-1-sulfonylamino)-benzoyl]-1H-pyrrolo[2,3-b]pyridin-5-yl}-amide] |  |  |  |  | < 0.1 µM | < 1 µM | ~0.1 µM |
